{
  "source": "ChEMBL document CHEMBL5465560",
  "about": "“Selectivity Literature for EUbOPEN Chemogenomic Library” (2024)",
  "key": {"[1]": {"target": "T1, Serine/threonine-protein kinase D2 (Homo sapiens) (UniProt Q9BZL6)", "T1 sequence (whole entry)": "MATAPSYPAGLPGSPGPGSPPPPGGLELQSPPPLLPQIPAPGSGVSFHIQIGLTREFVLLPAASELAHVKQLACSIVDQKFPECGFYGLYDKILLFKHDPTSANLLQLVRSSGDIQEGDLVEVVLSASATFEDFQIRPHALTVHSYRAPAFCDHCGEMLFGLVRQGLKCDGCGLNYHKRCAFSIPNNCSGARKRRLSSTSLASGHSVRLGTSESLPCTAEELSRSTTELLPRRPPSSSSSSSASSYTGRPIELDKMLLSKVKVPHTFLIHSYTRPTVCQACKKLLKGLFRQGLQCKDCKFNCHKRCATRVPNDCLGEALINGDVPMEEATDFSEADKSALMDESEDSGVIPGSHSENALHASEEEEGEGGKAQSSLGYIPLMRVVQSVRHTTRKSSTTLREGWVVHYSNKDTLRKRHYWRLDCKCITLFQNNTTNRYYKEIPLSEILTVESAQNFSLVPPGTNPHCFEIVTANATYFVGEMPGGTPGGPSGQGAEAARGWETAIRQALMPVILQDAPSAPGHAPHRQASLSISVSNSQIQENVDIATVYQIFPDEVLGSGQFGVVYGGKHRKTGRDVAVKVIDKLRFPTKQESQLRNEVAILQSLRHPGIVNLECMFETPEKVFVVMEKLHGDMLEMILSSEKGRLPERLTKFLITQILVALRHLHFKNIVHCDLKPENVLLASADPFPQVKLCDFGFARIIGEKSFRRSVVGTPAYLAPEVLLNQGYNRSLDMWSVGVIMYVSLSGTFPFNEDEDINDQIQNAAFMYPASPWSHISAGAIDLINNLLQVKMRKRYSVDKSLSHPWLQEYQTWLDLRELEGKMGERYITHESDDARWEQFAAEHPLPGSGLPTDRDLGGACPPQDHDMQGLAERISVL", "test": "Selectivity interaction (KinomeScan (DiscoverX)) EUB0001079a PRKD2", "details": "at 1 µM"}, "[2]": {"target": "T2, Serine/threonine-protein kinase DCLK3 (Homo sapiens) (UniProt Q9C098)", "T2 sequence (whole entry)": "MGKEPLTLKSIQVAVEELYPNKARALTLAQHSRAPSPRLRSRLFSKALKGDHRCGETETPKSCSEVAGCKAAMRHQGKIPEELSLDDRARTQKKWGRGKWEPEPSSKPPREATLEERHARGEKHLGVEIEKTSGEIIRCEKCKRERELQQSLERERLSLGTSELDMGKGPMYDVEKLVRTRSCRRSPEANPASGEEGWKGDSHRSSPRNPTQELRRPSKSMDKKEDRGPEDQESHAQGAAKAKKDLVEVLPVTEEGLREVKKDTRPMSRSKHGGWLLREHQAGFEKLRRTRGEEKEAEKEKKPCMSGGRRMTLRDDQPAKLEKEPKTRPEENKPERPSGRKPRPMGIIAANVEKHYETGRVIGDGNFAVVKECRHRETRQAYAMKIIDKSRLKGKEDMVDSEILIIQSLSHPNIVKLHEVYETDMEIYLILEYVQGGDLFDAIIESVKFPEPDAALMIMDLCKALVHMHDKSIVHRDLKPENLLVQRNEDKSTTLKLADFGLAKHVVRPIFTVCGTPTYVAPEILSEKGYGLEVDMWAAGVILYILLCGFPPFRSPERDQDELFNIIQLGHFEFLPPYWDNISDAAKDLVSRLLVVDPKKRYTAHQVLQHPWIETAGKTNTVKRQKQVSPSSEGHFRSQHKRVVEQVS", "test": "Selectivity interaction (KinomeScan (DiscoverX)) EUB0001619a DCLK3", "details": "at 1 µM"}, "[3]": {"target": "T3, Non-receptor tyrosine-protein kinase TNK1 (Homo sapiens) (UniProt Q13470)", "T3 sequence (whole entry)": "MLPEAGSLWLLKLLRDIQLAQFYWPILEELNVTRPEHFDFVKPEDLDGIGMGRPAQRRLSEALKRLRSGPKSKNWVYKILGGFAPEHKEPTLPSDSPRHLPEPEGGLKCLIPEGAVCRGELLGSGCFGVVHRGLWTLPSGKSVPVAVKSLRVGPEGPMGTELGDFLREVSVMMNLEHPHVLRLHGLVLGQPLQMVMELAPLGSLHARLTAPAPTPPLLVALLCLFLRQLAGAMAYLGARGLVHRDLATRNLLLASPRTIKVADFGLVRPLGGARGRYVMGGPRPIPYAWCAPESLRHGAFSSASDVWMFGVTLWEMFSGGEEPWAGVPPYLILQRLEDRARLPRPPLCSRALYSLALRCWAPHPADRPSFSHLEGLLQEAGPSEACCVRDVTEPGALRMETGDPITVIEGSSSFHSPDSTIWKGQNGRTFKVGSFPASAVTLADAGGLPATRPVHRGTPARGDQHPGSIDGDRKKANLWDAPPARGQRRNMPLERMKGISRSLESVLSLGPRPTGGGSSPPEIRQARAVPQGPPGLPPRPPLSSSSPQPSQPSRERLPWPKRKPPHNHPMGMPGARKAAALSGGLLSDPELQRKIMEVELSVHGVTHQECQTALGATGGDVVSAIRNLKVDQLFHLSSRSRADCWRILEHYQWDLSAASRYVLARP", "test": "Selectivity interaction (Kinase panel (Z-LYTE Assay)) EUB0001632a TNK1", "details": "at 10 µM"}, "[4]": {"target": "T4, Inhibitor of nuclear factor kappa-B kinase subunit beta (Homo sapiens) (UniProt O14920)", "T4 sequence (whole entry)": "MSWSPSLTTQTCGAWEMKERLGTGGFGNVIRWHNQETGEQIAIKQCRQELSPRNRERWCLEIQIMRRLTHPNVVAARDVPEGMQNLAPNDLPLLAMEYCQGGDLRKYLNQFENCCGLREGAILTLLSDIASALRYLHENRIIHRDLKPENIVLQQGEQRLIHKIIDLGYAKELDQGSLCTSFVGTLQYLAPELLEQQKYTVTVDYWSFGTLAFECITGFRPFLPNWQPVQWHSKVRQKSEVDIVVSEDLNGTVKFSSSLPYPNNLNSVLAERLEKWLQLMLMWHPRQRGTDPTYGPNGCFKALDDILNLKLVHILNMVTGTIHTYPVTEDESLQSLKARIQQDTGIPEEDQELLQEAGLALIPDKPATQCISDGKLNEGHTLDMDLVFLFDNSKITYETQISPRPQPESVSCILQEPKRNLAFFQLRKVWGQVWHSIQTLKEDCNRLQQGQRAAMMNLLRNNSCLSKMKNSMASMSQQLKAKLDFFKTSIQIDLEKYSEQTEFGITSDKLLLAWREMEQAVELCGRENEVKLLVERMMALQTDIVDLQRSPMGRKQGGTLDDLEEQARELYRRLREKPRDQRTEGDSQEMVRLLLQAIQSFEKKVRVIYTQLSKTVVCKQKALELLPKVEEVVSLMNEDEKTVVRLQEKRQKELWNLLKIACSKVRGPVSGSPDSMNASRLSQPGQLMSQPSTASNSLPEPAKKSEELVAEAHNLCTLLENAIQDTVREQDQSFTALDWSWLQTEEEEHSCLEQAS"}},
  "data": [
    {"smiles": "Nc1cnc(N2CCc3cc(S(=O)(=O)Nc4c(F)cc(Cl)cc4F)cc(N4CCCC4=O)c32)nc1", "note": "[TP-020n]", "values": [
      {"measurement": "% of control", "setting": "[1]", "value": 100, "unit": "%"}
    ]},
    {"smiles": "N#Cc1cccc(-c2c[nH]c3ncnc(N4CCOCC4)c23)c1", "values": [
      {"measurement": "% of control", "setting": "[2]", "value": 100, "unit": "%"}
    ]},
    {"smiles": "Cn1cc(-n2cnc3c(NCc4nc5cc(Cl)c(Cl)cc5[nH]4)nc(N4CCOCC4)nc32)cn1", "values": [
      {"measurement": "% of control", "setting": "[3]", "value": 4.62, "unit": "%"}
    ]},
    {"smiles": "Cc1cnc(Nc2ccc(F)cc2Cl)nc1-c1c[nH]c(C(=O)N[C@H](CO)c2cccc(Cl)c2)c1", "values": [
      {"measurement": "% of inhibition", "setting": "[4]", "value": 8, "unit": "%"}
    ]}
  ]
}
